Experimental data taken from paper PMC10004195, “Novel Dual-Target Kinase Inhibitors of EGFR and ALK Were Designed, Synthesized, and Induced Cell Apoptosis in Non-Small Cell Lung Cancer” (Molecules, 2023).
Like-named read-outs stand apart in the source and are kept apart here.

Assays:
[1] = test system: H1975 (EGFR T790M/L858R) cells; assay: CCK8 antiproliferative assay, H1975 cells; assay type: cell-based, human
Excerpt: (§1) The human cancer cell lines (H1975, H2228) used in this study were purchased from the Guangzhou ginny ou biotechnology Co., Ltd. (Guangzhou, China). The human cancer cell lines (NCI-H522) used in this study were purchased from the Shenzhen Haodi Huatuo Biotechnology Co., LTD (Shenzhen, China). The human cancer cell lines (LOVO, HLF, BJ, LO2) used in this study were purchased from the Laboratory Animal Service Center at Sun Yat-sen University (Guangzhou, China). […] Cell lines LOVO, HLF, BJ, and LO2 were cultivated in DMEM containing 10% (v/v) heat-inactivated fetal bovine serum (FBS), 100 units/mL penicillin, and 100 μg/mL streptomycin.

H522 cells = assay: CCK8 antiproliferative assay, H522 cells; assay type: cell-based; details: Homo sapiens, NCI-H522, 72 h
Excerpt: The human cancer cell lines (H1975, H2228) used in this study were purchased from the Guangzhou ginny ou biotechnology Co., Ltd. (Guangzhou, China). The human cancer cell lines (NCI-H522) used in this study were purchased from the Shenzhen Haodi Huatuo Biotechnology Co., LTD (Shenzhen, China). The human cancer cell lines (LOVO, HLF, BJ, LO2) used in this study were purchased from the Laboratory Animal Service Center at Sun Yat-sen University (Guangzhou, China). Cell lines were cultivated in 1640 containing 10% (v/v) heat-inactivated fetal bovine serum (FBS), 100 units/mL penicillin, and 100 μg/mL streptomycin. Cell lines LOVO, HLF, BJ, and LO2 were cultivated in DMEM containing 10% (v/v) heat-inactivated fetal bovine serum (FBS), 100 units/mL penicillin, and 100 μg/mL streptomycin.

H2228 (EML4-ALK) cells = assay: CCK8 antiproliferative assay, H2228 cells; assay type: cell-based, human; details: read-out: IC50 H2228
Excerpt: as §1

[2] = test system: HLF (human embryonic lung fibroblast); assay: Cytotoxicity test on nontumorigenic cells, HLF; assay type: cell-based; details: Homo sapiens, Fibroblast, read-out: Toxicity to normal cells, IC50 HLF
Excerpt: (§2) It is critical to evaluate the balance between the safety and efficacy of drugs for the development of new drugs; thus, we then conducted a cytotoxicity test on […] types of nontumorigenic cell lines from different origins, including LO2 (human normal liver cells), HK2 (human kidney proximal convoluted tubule epithelial cells), HLF (human embryonic lung fibroblast), 293A (human embryonic kidney cells), and HUVEC (human umbilical vein endothelial cells). […] In addition, we evaluated the compound’s safety in vivo by performing acute toxicity tests in mice, and 9j was injected intravenously at concentrations of 100 mg/kg, 150 mg/kg, and 300 mg/kg.
(§3) A total of 7000 cells per well were seeded in a 96-well plate with at least three technical replicates; then, exposed to different concentrations (10, 5, 1, 0.1, 0.05, 0.01 uM) of the test compounds for 72 h. After the treatment, CCK8 (Sigma, St. Louis, MO, USA) was added to each well under sterile conditions (to a final concentration of 10% of the total volume) and the plates were incubated for 2–4 h at 37 °C. Absorbance was measured at 450 nm in a microplate reader.

[3] = test system: HK2 (human kidney proximal convoluted tubule epithelial cells); assay: Cytotoxicity test on nontumorigenic cells, HK2; assay type: cell-based; details: Homo sapiens, Epithelial cell; HK2, mean ± SE; read-out: Toxicity to normal cells, IC50 HK2
Excerpt: as §2, §3

[4] = test system: LO2 (human normal liver cells); assay: Cytotoxicity test on nontumorigenic cells, LO2; assay type: cell-based; details: Homo sapiens; LO2, mean ± SE; read-out: Toxicity to normal cells, IC50 LO2
Excerpt: as §2, §3

[5] = test system: HUVEC (human umbilical vein endothelial cells); assay: Cytotoxicity test on nontumorigenic cells, HUVEC; assay type: cell-based; details: Homo sapiens; HUVEC, mean ± SE; read-out: Toxicity to normal cells, IC50 HUVEC
Excerpt: as §2, §3

[6] = test system: 293A (human embryonic kidney cells); assay: Cytotoxicity test on nontumorigenic cells, 293A; assay type: cell-based; details: Homo sapiens, 293A, read-out: Toxicity to normal cells, IC50 293A
Excerpt: as §2, §3

[7] = Homo sapiens, NCI-H1975, 72 h, CCK8 assay, 72 h, H1975 (EGFR T790M/L858R), read-out: IC50 H1975
[8] = Homo sapiens, NCI-H2228, 72 h, CCK8 assay, 72 h, H2228 (EML4-ALK)
[9] = CCK8 assay, 72 h, H1975 (EGFR T790M/L858R), read-out: IC50 H1975

Row | Structure (SMILES) | IC50 [1, 7] [nM] | IC50 (H522 cells) [nM] | IC50 (H2228 (EML4-ALK) cells; [8]) [nM] | other results
1 | C=CC(=O)Nc1cc(Nc2ncc(Cl)c(Nc3ccccc3[S+]([O-])C3CC3)n2)c(OC)cc1C1CCN(C)CC1 (stereo not shown) [9a, N-(5-((5-Chloro-4-((2-(cyclopropylsulfinyl)phenyl)amino)pyrimidin-2-yl)amino)-4-methoxy-2-(1-methylpiperidin-4-yl)phenyl)acrylamide] | 451 ± 70 | > 10000 | 121 ± 90 | 
2 | C=CC(=O)Nc1cc(Nc2ncc(Cl)c(Nc3ccccc3[S+]([O-])CC3CC3)n2)c(OC)cc1C1CCN(C)CC1 (stereo not shown) [9b, N-(5-((5-Chloro-4-((2-((cyclopropylmethyl)sulfinyl)phenyl)amino)pyrimidin-2-yl)amino)-4-methoxy-2-(1-methylpiperidin-4-yl)phenyl)acrylamide] | 68.9 | > 10000 | 98.9 | IC50 [1, 9]: 69 ± 7 nM; IC50 (H2228 (EML4-ALK) cells; CCK8 assay, 72 h, H2228 (EML4-ALK)): 99 ± 7 nM
3 | C=CC(=O)Nc1cc(Nc2ncc(Cl)c(Nc3ccc(F)cc3[S+]([O-])CC3CC3)n2)c(OC)cc1C1CCN(C)CC1 (stereo not shown) [9c, N-(5-((5-Chloro-4-((2-((cyclopropylmethyl)sulfinyl)-4-fluorophenyl)amino)pyrimidin-2-yl)amino)-4-methoxy-2-(1-methylpiperidin-4-yl)phenyl)acrylamide] | 271 ± 130 | > 10000 | 103 ± 70 | 
4 | C=CC(=O)Nc1cc(Nc2ncc(Cl)c(Nc3ccc(Cl)cc3[S+]([O-])CC3CC3)n2)c(OC)cc1C1CCN(C)CC1 (stereo not shown) [9d, N-(5-((5-Chloro-4-((4-chloro-2-((cyclopropylmethyl)sulfinyl)phenyl)amino)pyrimidin-2-yl)amino)-4-methoxy-2-(1-methylpiperidin-4-yl)phenyl)acrylamide] | 114 ± 80 | > 10000 | 89 ± 30 | 
5 | C=CC(=O)Nc1cc(Nc2ncc(Cl)c(Nc3ccccc3[S+]([O-])CC)n2)c(OC)cc1C1CCN(C)CC1 (stereo not shown) [9e, N-(5-((5-Chloro-4-((2-(ethylsulfinyl)phenyl)amino)pyrimidin-2-yl)amino)-4-methoxy-2-(1-methylpiperidin-4-yl)phenyl)acrylamide] | 170 ± 20 | > 10000 | 97.7 ± 50 | 
6 | C=CC(=O)Nc1cc(Nc2ncc(Cl)c(Nc3ccc(F)cc3[S+]([O-])CC)n2)c(OC)cc1C1CCN(C)CC1 (stereo not shown) [9f, N-(5-((5-Chloro-4-((2-(ethylsulfinyl)-4-fluorophenyl)amino)pyrimidin-2-yl)amino)-4-methoxy-2-(1-methylpiperidin-4-yl)phenyl)acrylamide] | 550 ± 90 | > 10000 | 92.8 ± 60 | 
7 | C=CC(=O)Nc1cc(Nc2ncc(Cl)c(Nc3ccc(Cl)cc3[S+]([O-])CC)n2)c(OC)cc1C1CCN(C)CC1 (stereo not shown) [9g, N-(5-((5-Chloro-4-((4-chloro-2-(ethylsulfinyl)phenyl)amino)pyrimidin-2-yl)amino)-4-methoxy-2-(1-methylpiperidin-4-yl)phenyl)acrylamide] | 69 ± 10 | > 10000 | 104 ± 50 | 
8 | C=CC(=O)Nc1cc(Nc2ncc(Cl)c(Nc3ccccc3[S+]([O-])C(C)C)n2)c(OC)cc1C1CCN(C)CC1 (stereo not shown) [9h, N-(5-((5-Chloro-4-((2-(isopropylsulfinyl)phenyl)amino)pyrimidin-2-yl)amino)-4-methoxy-2-(1-methylpiperidin-4-yl)phenyl)acrylamide] | 68.9 to 78.2 | > 10000 | 76.6 ± 20 | IC50 [1, 9]: 83.9 ± 30 nM
9 | C=CC(=O)Nc1cc(Nc2ncc(Cl)c(Nc3ccc(F)cc3[S+]([O-])C(C)C)n2)c(OC)cc1C1CCN(C)CC1 (stereo not shown) [9i, N-(5-((5-Chloro-4-((4-fluoro-2-(isopropylsulfinyl)phenyl)amino)pyrimidin-2-yl)amino)-4-methoxy-2-(1-methylpiperidin-4-yl)phenyl)acrylamide] | 309 ± 110 | > 10000 | 98.1 ± 60 | 
10 | Cc1cc(Nc2ncc(Cl)c(Nc3ccccc3S(=O)(=O)C(C)C)n2)c(OC(C)C)cc1C1CCNCC1 [Ceritinib, reference compound] | 78.3 ± 30 |  | 22.1 ± 8 | 
11 | C=CC(=O)Nc1cc(Nc2nccc(-c3cn(C)c4ccccc34)n2)c(OC)cc1N(C)CCN(C)C [Osimertinib, reference compound] |  |  |  | IC50 [2]: 3240 ± 80 nM; IC50 ([1]; Homo sapiens, NCI-H1975, 72 h, read-out: IC50 H1975): 4.1 ± 1 nM; IC50 ([1]; Homo sapiens, NCI-H1975, read-out: IC50 H1975 (Table 2)): 4.1 ± 1 nM; IC50 [3]: 2130 ± 90 nM; IC50 (H2228 (EML4-ALK) cells; Homo sapiens, NCI-H2228, 72 h): 2016 ± 8 nM; IC50 [4]: 1720 ± 50 nM; IC50 [5]: 4340 ± 10 nM; IC50 [6]: 2250 ± 20 nM
